We go through 15 molecules from patent US20250179066A1, “ZWITTERIONIC ANTIBACTERIAL COMPOUNDS” (Hoffmann-La Roche Inc., priority 2022, published 2025).

The test system of the assay is Acinetobacter baumannii ATCC17961. The assay can be described thus: Antimicrobial susceptibility testing: 90% growth inhibitory concentration (IC90) determination. It counts as cell-based. Particulars: Acinetobacter baumannii, ATCC17961, 16 h, 90% growth inhibitory concentration against Acinetobacter baumannii ATCC17961, Iso-Sensitest broth, OD 600 nm over 16 h; read-out: ATCC 17961 IC90. Put shortly: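 Twofold serial dilutions (e.g. 10 to 0.0195 μM final) in Iso-Sensitest broth inoculated at ~5×10^5 CFU/mL, incubated at 35±2° C. OD600 read every minute for 16 h; IC90 is the concentration inhibiting 90% of growth during logarithmic phase.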
For `Cn1c(-c2cn(-c3ccc4[nH]c(CCC(N)=O)cc4n3)nc2C(F)(F)F)cnc1C(=O)Nc1ccc(C(=O)N2CCN(C(=O)[C@H]3CC[N@@+](CCCN)(CC(=O)O)CC3)CC2)c(Cl)c1` [Example 99, cis-2-[4-[4-[4-[[5-[1-[2-(3-amino-3-oxo-propyl)-1H-pyrrolo[3,2-b]pyridin-5-yl]-3-(trifluoromethyl)pyrazol-4-yl]-1-methyl-imidazole-2-carbonyl]amino]-2-chloro-benzoyl]piperazine-1-carbonyl]-1-(3-aminopropyl)piperidin-1-ium-1-yl]acetic acid;2,2,2-trifluoroacetate], the IC90 turned out to be 0.361 µM. The result for `Cn1c(-c2cn(-c3ccc(N4CCOCC4)cc3F)nc2C(F)(F)F)cnc1C(=O)Nc1ccc(C(=O)N2CCN(C(=O)[C@H]3CC[N@@+](CCCN)(CC(=O)O)CC3)CC2)c(Cl)c1` [Example 100, cis-2-[1-(3-aminopropyl)-4-[4-[2-chloro-4-[[5-[1-(2-fluoro-4-morpholino-phenyl)-3-(trifluoromethyl)pyrazol-4-yl]-1-methyl-imidazole-2-carbonyl]amino]benzoyl]piperazine-1-carbonyl]piperidin-1-ium-1-yl]acetic acid;formate] reads 0.195 µM. The result for `Cc1cc(NC(=O)c2ncc(-c3cn(-c4ccc5[nH]c([C@H](C)O)cc5n4)nc3C(F)(F)F)n2C)ccc1C(=O)N1CCN(C(=O)[C@H]2CC[N@@+](CCCN)(CC(=O)O)CC2)CC1` [Example 101, cis-2-[1-(3-aminopropyl)-4-[4-[4-[[5-[1-[2-[(1S)-1-hydroxyethyl]-1H-pyrrolo[3,2-b]pyridin-5-yl]-3-(trifluoromethyl)pyrazol-4-yl]-1-methyl-imidazole-2-carbonyl]amino]-2-methyl-benzoyl]piperazine-1-carbonyl]piperidin-1-ium-1-yl]acetic acid;chloride] reads 0.338 µM; that for `Cn1c(-c2cn(-c3ccc4[nH]c(C(CO)CO)cc4n3)nc2C(F)(F)F)cnc1C(=O)Nc1ccc(C(=O)N2CCN(C(=O)[C@H]3CC[N@@+](CCCN)(CC(=O)O)CC3)CC2)c(Cl)c1` [Example 102, cis-2-[1-(3-aminopropyl)-4-[4-[2-chloro-4-[[5-[1-[2-[2-hydroxy-1-(hydroxymethyl)ethyl]-1H-pyrrolo[3,2-b]pyridin-5-yl]-3-(trifluoromethyl)pyrazol-4-yl]-1-methyl-imidazole-2-carbonyl]amino]benzoyl]piperazine-1-carbonyl]piperidin-1-ium-1-yl]acetic acid;formate], 0.445 µM.

As to `Cn1c(-c2cn(-c3ccc4c(cc(C(=O)N5CCOCC5)n4C)n3)nc2C(F)(F)F)cnc1C(=O)Nc1ccc(C(=O)N2CCN(C(=O)[C@H]3CC[N@@+](CCCN)(CC(=O)O)CC3)CC2)c(Cl)c1` [Example 103, cis-2-[1-(3-aminopropyl)-4-[4-[2-chloro-4-[[1-methyl-5-[1-[1-methyl-2-(morpholine-4-carbonyl)pyrrolo[3,2-b]pyridin-5-yl]-3-(trifluoromethyl)pyrazol-4-yl]imidazole-2-carbonyl]amino]benzoyl]piperazine-1-carbonyl]piperidin-1-ium-1-yl]acetic acid;formate], the IC90 stood at 0.604 µM.

Consider `Cn1c(-c2cn(-c3ccc4c(cc(C(=O)NCCO)n4C)n3)nc2C(F)(F)F)cnc1C(=O)Nc1ccc(C(=O)N2CCN(C(=O)[C@H]3CC[N@@+](CCCN)(CC(=O)O)CC3)CC2)c(Cl)c1` [Example 104, cis-2-[1-(3-aminopropyl)-4-[4-[2-chloro-4-[[5-[1-[2-(2-hydroxyethylcarbamoyl)-1-methyl-pyrrolo[3,2-b]pyridin-5-yl]-3-(trifluoromethyl)pyrazol-4-yl]-1-methyl-imidazole-2-carbonyl]amino]benzoyl]piperazine-1-carbonyl]piperidin-1-ium-1-yl]acetic acid;chloride], for which the IC90 worked out at 0.783 µM.

Turning to `Cn1c(-c2cn(-c3ccc4[nH]c([C@H](O)CO)cc4n3)nc2C(F)(F)F)cnc1C(=O)Nc1ccc(C(=O)N2CCN(C(=O)[C@H]3CC[N@+](CC(=O)O)(CC4CNC4)CC3)CC2)c(Cl)c1` [Example 105, cis-2-[1-(azetidin-3-ylmethyl)-4-[4-[2-chloro-4-[[5-[1-[2-[(1S)-1,2-dihydroxyethyl]-1H-pyrrolo[3,2-b]pyridin-5-yl]-3-(trifluoromethyl)pyrazol-4-yl]-1-methyl-imidazole-2-carbonyl]amino]benzoyl]piperazine-1-carbonyl]piperidin-1-ium-1-yl]acetic acid;2,2,2-trifluoroacetate], the 90% effect concentration (IC90) was 0.525 µM. The figure for `Cn1c(-c2cn(-c3ccc4[nH]c([C@@H](O)CO)cc4n3)nc2C(F)(F)F)cnc1C(=O)Nc1ccc(C(=O)N2CCN(C(=O)[C@H]3CC[N@+](CC(=O)O)(CC4CNC4)CC3)CC2)c(Cl)c1` [Example 106, cis-2-[1-(azetidin-3-ylmethyl)-4-[4-[2-chloro-4-[[5-[1-[2-[(1R)-1,2-dihydroxyethyl]-1H-pyrrolo[3,2-b]pyridin-5-yl]-3-(trifluoromethyl)pyrazol-4-yl]-1-methyl-imidazole-2-carbonyl]amino]benzoyl]piperazine-1-carbonyl]piperidin-1-ium-1-yl]acetic acid;chloride] is 0.611 µM. The result for `CNc1ccc(-n2cc(-c3cnc(C(=O)Nc4ccc(C(=O)N5CCN(C(=O)[C@H]6CC[N@+](CC(=O)O)(CC7CNC7)CC6)CC5)c(C)c4)n3C)c(C(F)(F)F)n2)c(F)c1` [Example 107, cis-2-[1-(azetidin-3-ylmethyl)-4-[4-[4-[[5-[1-[2-fluoro-4-(methylamino)phenyl]-3-(trifluoromethyl)pyrazol-4-yl]-1-methyl-imidazole-2-carbonyl]amino]-2-methyl-benzoyl]piperazine-1-carbonyl]piperidin-1-ium-1-yl]acetic acid;2,2,2-trifluoroacetate] reads 0.175 µM. On to `CNc1ccc(-n2cc(-c3cnc(C(=O)Nc4ccc(C(=O)N5CCN(C(=O)[C@H]6CC[N@+](CC(=O)O)(CC7CNC7)CC6)CC5)c(F)c4)n3C)c(C(F)(F)F)n2)c(F)c1` [Example 108, cis-2-[1-(azetidin-3-ylmethyl)-4-[4-[2-fluoro-4-[[5-[1-[2-fluoro-4-(methylamino)phenyl]-3-(trifluoromethyl)pyrazol-4-yl]-1-methyl-imidazole-2-carbonyl]amino]benzoyl]piperazine-1-carbonyl]piperidin-1-ium-1-yl]acetic acid; 2,2,2-trifluoroacetate], for which the IC90 was found to be 0.0587 µM. The figure for `CN(C)c1ccc(-n2cc(-c3cnc(C(=O)Nc4ccc(C(=O)N5CCN(C(=O)[C@H]6CC[N@+](CC(=O)O)(CC7CNC7)CC6)CC5)c(F)c4)n3C)c(C(F)(F)F)n2)c(F)c1` [Example 109, cis-2-[1-(azetidin-3-ylmethyl)-4-[4-[4-[[5-[1-[4-(dimethylamino)-2-fluoro-phenyl]-3-(trifluoromethyl)pyrazol-4-yl]-1-methyl-imidazole-2-carbonyl]amino]-2-fluoro-benzoyl]piperazine-1-carbonyl]piperidin-1-ium-1-yl]acetic acid; 2,2,2-trifluoroacetate] is 0.213 µM; for `Cc1cc(NC(=O)c2ncc(-c3cn(-c4ccc(O)cc4F)nc3C(F)(F)F)n2C)ccc1C(=O)N1CCN(C(=O)[C@H]2CC[N@@+](CCCN)(CC(=O)O)CC2)CC1` [Example 110, cis-2-[1-(3-aminopropyl)-4-[4-[4-[[5-[1-(2-fluoro-4-hydroxy-phenyl)-3-(trifluoromethyl)pyrazol-4-yl]-1-methyl-imidazole-2-carbonyl]amino]-2-methyl-benzoyl]piperazine-1-carbonyl]piperidin-1-ium-1-yl]acetic acid. 1:1 2,2,2-trifluoroacetate] it is 0.207 µM; for `COCCNc1ccc(-n2cc(-c3cnc(C(=O)Nc4ccc(C(=O)N5CCN(C(=O)[C@H]6CC[N@+](CC(=O)O)(CC7CNC7)CC6)CC5)c(C)c4)n3C)c(C(F)(F)F)n2)c(F)c1` [Example 111, cis-2-[1-(azetidin-3-ylmethyl)-4-[4-[4-[[5-[1-[2-fluoro-4-(2-methoxyethylamino)phenyl]-3-(trifluoromethyl)pyrazol-4-yl]-1-methyl-imidazole-2-carbonyl]amino]-2-methyl-benzoyl]piperazine-1-carbonyl]piperidin-1-ium-1-yl]acetic acid;2,2,2-trifluoroacetate] it is 0.185 µM. The figure for `Cn1c(-c2cn(-c3cc4[nH]c(C(=O)N5C[C@H]6CNC[C@H]6C5)cc4cn3)nc2C(F)(F)F)cnc1C(=O)Nc1ccc(C(=O)N2CCN(C(=O)[C@H]3CC[N@+](CC(=O)O)(CC4CNC4)CC3)CC2)c(Cl)c1` [Example 112, cis-2-[4-[4-[4-[[5-[1-[2-[(3aS,6aR)-2,3,3a,4,6,6a-hexahydro-1H-pyrrolo[3,4-c]pyrrole-5-carbonyl]-1H-pyrrolo[3,2-c]pyridin-6-yl]-3-(trifluoromethyl)pyrazol-4-yl]-1-methyl-imidazole-2-carbonyl]amino]-2-chloro-benzoyl]piperazine-1-carbonyl]-1-(azetidin-3-ylmethyl)piperidin-1-ium-1-yl]acetic acid. 1:1 2,2,2-trifluoroacetate] is 0.356 µM.

Regarding `Cn1c(-c2cn(-c3cc4[nH]c(C(=O)N5CC6(CCOCC6)C5)cc4cn3)nc2C(F)(F)F)cnc1C(=O)Nc1ccc(C(=O)N2CCN(C(=O)[C@H]3CC[N@+](CC(=O)O)(CC4CNC4)CC3)CC2)c(Cl)c1` [Example 113, cis-2-[1-(azetidin-3-ylmethyl)-4-[4-[2-chloro-4-[[1-methyl-5-[1-[2-(7-oxa-2-azaspiro[3.5]nonane-2-carbonyl)-1H-pyrrolo[3,2-c]pyridin-6-yl]-3-(trifluoromethyl)pyrazol-4-yl]imidazole-2-carbonyl]amino]benzoyl]piperazine-1-carbonyl]piperidin-1-ium-1-yl]acetic acid. 1:1 2,2,2-trifluoroacetate], the 90% effect concentration (IC90) is 0.707 µM.
